Among the data in BindingDB's records for doi:10.1016/0960-894X(96)00057-1 (1996) are IC50 values, retold here.

Assay [1] can be described thus: Compound was tested for inhibition of HL60 cell adhesion to recombinant P-selectin-IgG fusion protein obtained from transfected COS cells.
Experiment in assay [2]: as above
This is another data set of the same source.

Each structure is given as a SMILES string.

In general, IC50 refers to the concentration needed to halve the response being measured. Regarding `CC(=O)N[C@@H]1[C@H](OCCCCCC/N=C(S)/N=C2\C=CC(=C3c4ccc(O)cc4Oc4cc(O)ccc43)C(C(=O)O)=C2)O[C@@H](CO)[C@@H](O[C@@H]2O[C@@H](CO)[C@H](O)[C@H](O[C@]3(C(=O)O)C[C@@H](O)[C@@H](NC(C)=O)[C@H]([C@H](O)[C@H](O)CO)O3)[C@@H]2O)[C@@H]1O[C@@H]1O[C@@H](C)[C@@H](O)[C@H](O)[C@@H]1O`, the IC50 in assay [1] came out at 900 µM.
For the compound `CC(=O)N[C@H]1[C@H]([C@H](O)[C@H](O)CO)O[C@@](O[C@@H]2[C@H](O)[C@H](O[C@H]3[C@H](O[C@@H]4O[C@@H](C)[C@@H](O)[C@H](O)[C@@H]4O)[C@H](NC(C)=O)[C@H](NC(=O)[C@H](C)NC(=O)[C@H](CC(=O)O)NC(=O)CNC(=O)[C@@H](N)CCCN=C(N)N)O[C@H]3CO)O[C@@H](CO)[C@@H]2O)(C(=O)O)C[C@H]1O`, the IC50 in assay [1] was 26 µM.
As to `CC(=O)N[C@@H]1[C@H](OCCCCCCNC(=O)[C@H]2CC[C@H](CN3C(=O)C=CC3=O)CC2)O[C@@H](CO)[C@@H](O[C@@H]2O[C@@H](CO)[C@H](O)[C@H](O[C@]3(C(=O)O)C[C@@H](O)[C@@H](NC(C)=O)[C@H]([C@H](O)[C@H](O)CO)O3)[C@@H]2O)[C@@H]1O[C@@H]1O[C@@H](C)[C@@H](O)[C@H](O)[C@@H]1O` [Sialyl-LewisX Conjugate], the IC50 in assay [2] is 380 µM.
Turning to `CC(=O)N[C@@H]1[C@H](OCCCCCCNC(=O)CCC(=O)O)O[C@@H](CO)[C@@H](O[C@@H]2O[C@@H](CO)[C@H](O)[C@H](O[C@]3(C(=O)O)C[C@@H](O)[C@@H](NC(C)=O)[C@H]([C@H](O)[C@H](O)CO)O3)[C@@H]2O)[C@@H]1O[C@@H]1O[C@@H](C)[C@@H](O)[C@H](O)[C@@H]1O` [Sialyl-LewisX Conjugate], the IC50 in assay [2] is 1500 µM.
